Data taken from publication PMC4979471 (Cell Death Discovery, 2015).
Like-named read-outs stand apart in the source and are kept apart here.

What was measured:
Assay in all cases: Kinase selectivity, P33-radiolabeled assay
Assay type in all cases: biochemical
Conditions in all cases: 10 μM ATP
DMPK = molecular target: T1, DMPK (Homo sapiens, UniProt Q09013)
T1 construct: purchased Reaction Biology Corp
T1 sequence (Q09013 1-629): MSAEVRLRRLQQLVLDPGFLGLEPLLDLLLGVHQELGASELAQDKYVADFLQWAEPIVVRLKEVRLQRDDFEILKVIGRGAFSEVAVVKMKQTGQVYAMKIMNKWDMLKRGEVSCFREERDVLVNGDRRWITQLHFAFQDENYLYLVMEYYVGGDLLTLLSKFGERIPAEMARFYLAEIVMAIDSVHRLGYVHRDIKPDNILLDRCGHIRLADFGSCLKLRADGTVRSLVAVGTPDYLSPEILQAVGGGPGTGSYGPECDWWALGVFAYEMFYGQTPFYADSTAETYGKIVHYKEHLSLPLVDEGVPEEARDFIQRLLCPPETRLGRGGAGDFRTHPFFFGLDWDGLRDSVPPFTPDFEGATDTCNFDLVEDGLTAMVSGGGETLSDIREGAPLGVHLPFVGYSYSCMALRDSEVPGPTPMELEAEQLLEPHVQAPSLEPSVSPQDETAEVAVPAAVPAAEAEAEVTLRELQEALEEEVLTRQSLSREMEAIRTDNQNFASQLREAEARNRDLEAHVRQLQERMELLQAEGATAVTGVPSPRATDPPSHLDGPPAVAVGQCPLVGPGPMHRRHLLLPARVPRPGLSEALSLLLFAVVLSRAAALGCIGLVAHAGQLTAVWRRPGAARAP
In short: (§1)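 Duplicate single-concentration testing used 10 μM compound. The ATP concentration was also 10 μM.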

CK1g3 = molecular target: T2, CK1g3 (Homo sapiens, UniProt Q9Y6M4)
T2 construct: purchased Reaction Biology Corp
In short: as §1

ULK3 = molecular target: T3, ULK3 (Homo sapiens, UniProt Q6PHR2)
T3 construct: purchased Reaction Biology Corp
T3 sequence (Q6PHR2 1-472): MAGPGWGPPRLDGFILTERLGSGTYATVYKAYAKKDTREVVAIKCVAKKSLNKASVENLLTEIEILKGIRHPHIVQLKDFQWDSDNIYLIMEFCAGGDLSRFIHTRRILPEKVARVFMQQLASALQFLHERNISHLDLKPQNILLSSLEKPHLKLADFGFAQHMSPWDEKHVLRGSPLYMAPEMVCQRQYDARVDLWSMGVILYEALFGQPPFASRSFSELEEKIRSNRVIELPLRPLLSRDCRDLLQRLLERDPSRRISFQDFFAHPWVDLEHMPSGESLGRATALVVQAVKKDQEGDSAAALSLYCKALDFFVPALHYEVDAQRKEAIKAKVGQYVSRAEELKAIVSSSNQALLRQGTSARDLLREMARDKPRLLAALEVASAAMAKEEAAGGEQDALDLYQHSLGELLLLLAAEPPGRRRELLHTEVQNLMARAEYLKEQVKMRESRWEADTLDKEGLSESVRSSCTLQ
In short: as §1

MKK6 = molecular target: T4, MKK6 (Homo sapiens, UniProt P52564)
T4 construct: purchased Reaction Biology Corp
T4 sequence (P52564 1-334): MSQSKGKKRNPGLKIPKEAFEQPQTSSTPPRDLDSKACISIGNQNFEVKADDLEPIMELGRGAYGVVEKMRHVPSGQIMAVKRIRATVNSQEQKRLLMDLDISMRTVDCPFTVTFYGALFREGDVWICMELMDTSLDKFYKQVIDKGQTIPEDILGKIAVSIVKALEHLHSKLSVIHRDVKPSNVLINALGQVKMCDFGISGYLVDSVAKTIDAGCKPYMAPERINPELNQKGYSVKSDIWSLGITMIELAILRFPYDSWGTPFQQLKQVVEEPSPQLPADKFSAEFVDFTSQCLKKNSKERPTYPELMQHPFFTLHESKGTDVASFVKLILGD
In short: as §1

MAPKAPK3 = molecular target: T5, MAPKAPK3 (Homo sapiens, UniProt Q16644)
T5 construct: purchased Reaction Biology Corp
In short: as §1

WNK1 = molecular target: T6, WNK1 (Homo sapiens, UniProt Q9H4A3)
T6 construct: purchased Reaction Biology Corp
In short: as §1

CK2a = molecular target: T7, CK2a (Homo sapiens, UniProt P68400)
T7 construct: purchased Reaction Biology Corp
In short: as §1

CHK1 = molecular target: T8, CHK1 (Homo sapiens, UniProt O14757)
T8 construct: purchased Reaction Biology Corp
T8 sequence (O14757 1-476): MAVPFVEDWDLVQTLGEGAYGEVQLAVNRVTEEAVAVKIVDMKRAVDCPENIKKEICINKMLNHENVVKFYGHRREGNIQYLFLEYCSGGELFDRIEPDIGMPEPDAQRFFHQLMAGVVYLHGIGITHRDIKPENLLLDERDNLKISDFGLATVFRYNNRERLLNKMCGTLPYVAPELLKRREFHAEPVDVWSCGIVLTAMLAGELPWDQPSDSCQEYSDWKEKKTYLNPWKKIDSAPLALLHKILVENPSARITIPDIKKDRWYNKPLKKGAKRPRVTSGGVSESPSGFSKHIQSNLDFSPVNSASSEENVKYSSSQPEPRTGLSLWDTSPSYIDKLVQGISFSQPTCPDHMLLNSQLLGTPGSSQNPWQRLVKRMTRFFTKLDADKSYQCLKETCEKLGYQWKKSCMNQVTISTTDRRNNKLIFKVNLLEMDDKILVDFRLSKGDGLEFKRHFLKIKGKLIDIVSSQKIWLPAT
In short: as §1

MARK3 = molecular target: T9, MARK3 (Homo sapiens, UniProt P27448)
T9 construct: purchased Reaction Biology Corp
In short: as §1

[1] = read-out: % Enzyme Activity (relative to DMSO controls) AVG
[2] = read-out: % Enzyme Activity (relative to DMSO controls) Data 1
[3] = read-out: % Enzyme Activity (relative to DMSO controls) Data 2

T5 sequence (Q16644 whole entry): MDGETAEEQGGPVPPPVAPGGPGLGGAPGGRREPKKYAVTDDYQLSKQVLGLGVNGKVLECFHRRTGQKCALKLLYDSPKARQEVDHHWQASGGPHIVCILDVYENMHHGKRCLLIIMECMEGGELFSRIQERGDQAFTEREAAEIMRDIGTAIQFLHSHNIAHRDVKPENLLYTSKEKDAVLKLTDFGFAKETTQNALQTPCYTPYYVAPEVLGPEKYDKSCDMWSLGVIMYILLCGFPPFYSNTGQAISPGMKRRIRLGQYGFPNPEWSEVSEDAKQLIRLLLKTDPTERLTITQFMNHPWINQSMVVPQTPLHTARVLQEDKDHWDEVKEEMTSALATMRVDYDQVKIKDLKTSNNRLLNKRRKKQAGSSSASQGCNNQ
T7 sequence (P68400 whole entry): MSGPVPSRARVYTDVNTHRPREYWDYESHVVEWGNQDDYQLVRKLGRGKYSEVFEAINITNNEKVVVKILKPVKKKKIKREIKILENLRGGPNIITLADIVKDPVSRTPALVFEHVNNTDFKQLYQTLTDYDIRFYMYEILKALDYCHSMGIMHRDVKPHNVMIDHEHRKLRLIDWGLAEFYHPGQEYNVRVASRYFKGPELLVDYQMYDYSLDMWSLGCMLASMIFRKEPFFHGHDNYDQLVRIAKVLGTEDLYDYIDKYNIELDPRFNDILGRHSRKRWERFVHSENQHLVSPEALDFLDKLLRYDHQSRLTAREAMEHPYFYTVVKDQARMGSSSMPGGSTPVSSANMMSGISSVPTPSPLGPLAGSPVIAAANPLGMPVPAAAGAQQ
T2 sequence (Q9Y6M4 whole entry): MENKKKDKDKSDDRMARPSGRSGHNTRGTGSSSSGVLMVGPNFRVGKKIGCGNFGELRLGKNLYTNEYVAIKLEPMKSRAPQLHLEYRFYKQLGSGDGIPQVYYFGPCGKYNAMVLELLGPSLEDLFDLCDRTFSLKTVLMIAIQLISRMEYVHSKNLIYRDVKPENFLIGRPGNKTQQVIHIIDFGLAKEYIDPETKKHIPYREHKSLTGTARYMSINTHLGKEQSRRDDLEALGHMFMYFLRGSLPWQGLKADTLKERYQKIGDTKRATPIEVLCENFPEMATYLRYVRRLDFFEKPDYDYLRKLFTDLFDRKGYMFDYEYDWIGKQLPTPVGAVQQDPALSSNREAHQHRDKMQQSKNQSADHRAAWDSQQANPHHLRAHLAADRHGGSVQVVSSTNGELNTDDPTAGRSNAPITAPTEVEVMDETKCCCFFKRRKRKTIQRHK
T6 sequence (Q9H4A3 whole entry): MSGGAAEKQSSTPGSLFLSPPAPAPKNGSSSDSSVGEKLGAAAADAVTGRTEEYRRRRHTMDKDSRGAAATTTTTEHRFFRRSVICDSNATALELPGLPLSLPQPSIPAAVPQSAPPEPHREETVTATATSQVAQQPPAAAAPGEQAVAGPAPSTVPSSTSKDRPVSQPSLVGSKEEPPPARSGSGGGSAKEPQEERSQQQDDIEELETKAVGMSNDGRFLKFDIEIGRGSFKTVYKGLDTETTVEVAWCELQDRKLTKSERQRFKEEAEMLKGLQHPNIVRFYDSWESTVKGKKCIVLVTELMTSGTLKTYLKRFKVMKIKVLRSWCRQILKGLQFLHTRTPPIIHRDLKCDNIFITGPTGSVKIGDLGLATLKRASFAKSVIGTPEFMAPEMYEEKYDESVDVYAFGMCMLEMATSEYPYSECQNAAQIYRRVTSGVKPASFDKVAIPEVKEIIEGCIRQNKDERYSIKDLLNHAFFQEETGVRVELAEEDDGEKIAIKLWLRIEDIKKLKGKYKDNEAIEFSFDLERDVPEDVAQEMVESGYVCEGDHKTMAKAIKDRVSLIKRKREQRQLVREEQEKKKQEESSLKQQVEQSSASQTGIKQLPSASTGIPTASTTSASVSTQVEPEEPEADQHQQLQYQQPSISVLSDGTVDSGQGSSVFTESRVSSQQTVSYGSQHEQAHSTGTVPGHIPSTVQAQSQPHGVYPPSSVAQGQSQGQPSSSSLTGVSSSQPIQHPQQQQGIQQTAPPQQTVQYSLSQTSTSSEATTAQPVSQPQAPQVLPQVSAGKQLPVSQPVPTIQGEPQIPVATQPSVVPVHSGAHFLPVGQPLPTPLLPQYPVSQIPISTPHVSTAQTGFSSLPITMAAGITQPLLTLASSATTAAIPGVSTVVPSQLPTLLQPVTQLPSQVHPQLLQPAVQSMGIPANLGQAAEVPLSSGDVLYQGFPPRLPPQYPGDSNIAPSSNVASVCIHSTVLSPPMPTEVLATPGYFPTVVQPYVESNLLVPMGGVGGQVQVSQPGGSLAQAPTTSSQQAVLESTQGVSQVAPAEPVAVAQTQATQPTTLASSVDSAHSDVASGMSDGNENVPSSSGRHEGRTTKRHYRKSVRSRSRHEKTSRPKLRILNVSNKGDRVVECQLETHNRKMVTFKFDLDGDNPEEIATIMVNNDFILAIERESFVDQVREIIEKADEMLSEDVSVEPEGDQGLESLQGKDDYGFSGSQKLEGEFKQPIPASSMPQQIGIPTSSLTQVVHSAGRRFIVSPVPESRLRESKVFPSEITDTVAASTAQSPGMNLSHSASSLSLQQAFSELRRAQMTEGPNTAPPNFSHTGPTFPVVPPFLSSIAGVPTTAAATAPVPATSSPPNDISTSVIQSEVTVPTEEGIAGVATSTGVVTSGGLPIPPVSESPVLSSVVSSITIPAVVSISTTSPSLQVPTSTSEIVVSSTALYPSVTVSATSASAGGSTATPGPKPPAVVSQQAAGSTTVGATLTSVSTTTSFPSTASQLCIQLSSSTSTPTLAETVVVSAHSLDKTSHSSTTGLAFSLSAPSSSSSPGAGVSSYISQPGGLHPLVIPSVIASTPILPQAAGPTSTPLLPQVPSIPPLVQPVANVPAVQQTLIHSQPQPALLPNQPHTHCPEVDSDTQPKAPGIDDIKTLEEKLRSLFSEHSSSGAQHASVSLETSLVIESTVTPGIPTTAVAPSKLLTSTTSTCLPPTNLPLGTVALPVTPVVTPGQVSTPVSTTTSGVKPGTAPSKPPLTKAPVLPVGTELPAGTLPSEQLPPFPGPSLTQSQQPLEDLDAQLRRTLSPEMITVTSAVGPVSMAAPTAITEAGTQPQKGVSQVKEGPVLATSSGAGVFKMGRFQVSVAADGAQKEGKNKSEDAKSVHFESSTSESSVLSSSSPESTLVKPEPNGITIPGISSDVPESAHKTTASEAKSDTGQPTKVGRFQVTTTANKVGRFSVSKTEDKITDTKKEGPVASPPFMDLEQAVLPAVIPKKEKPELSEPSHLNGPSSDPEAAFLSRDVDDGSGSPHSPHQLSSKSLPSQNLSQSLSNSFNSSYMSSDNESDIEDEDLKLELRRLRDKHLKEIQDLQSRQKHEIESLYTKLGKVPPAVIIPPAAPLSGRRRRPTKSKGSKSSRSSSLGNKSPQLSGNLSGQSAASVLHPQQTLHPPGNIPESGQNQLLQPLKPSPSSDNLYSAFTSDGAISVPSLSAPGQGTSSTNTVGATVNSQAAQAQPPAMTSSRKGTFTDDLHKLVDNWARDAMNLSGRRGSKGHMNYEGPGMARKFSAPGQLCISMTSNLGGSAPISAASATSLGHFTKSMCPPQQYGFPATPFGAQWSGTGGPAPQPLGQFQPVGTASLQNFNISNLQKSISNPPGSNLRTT
T9 sequence (P27448 whole entry): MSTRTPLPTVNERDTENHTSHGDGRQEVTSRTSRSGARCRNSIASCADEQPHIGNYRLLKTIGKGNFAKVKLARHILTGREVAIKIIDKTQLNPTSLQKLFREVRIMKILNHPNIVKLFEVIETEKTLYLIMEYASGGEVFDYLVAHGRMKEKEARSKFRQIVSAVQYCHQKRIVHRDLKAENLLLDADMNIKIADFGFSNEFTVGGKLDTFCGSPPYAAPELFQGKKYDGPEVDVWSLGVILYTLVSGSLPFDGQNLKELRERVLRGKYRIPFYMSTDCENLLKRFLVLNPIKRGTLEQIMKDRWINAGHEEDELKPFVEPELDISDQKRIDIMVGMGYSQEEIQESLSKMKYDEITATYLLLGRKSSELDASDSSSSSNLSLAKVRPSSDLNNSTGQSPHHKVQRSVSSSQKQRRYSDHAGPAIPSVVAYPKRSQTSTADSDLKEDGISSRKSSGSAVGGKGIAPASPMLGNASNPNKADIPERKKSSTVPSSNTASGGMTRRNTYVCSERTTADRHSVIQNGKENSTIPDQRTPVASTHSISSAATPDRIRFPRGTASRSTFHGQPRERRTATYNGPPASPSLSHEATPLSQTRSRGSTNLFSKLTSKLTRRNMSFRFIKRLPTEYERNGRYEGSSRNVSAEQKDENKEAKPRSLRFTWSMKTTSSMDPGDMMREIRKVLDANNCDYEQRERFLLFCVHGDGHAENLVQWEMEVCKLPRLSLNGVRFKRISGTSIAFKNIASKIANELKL

CC(C)(C)C(=O)N1N=CC[C@H]1c1ccccc1 [GSK′963]
remaining activity at 10 µM (DMPK; [1]): 99.2% | remaining activity at 10 µM (DMPK; [2]): 97.5% | remaining activity at 10 µM (DMPK; [3]): 101% | remaining activity at 10 µM (CK1g3; [1]): 98.4% | remaining activity at 10 µM (CK1g3; [2]): 97.8% | remaining activity at 10 µM (CK1g3; [3]): 99% | remaining activity at 10 µM (ULK3; [1]): 91.6% | remaining activity at 10 µM (ULK3; [2]): 92.2% | remaining activity at 10 µM (ULK3; [3]): 90.9% | remaining activity at 10 µM (MKK6; [1]): 99.7% | remaining activity at 10 µM (MKK6; [2]): 101% | remaining activity at 10 µM (MKK6; [3]): 98.6% | remaining activity at 10 µM (MAPKAPK3; [1]): 103% | remaining activity at 10 µM (MAPKAPK3; [2]): 104% | remaining activity at 10 µM (MAPKAPK3; [3]): 103% | remaining activity at 10 µM (WNK1; [1]): 81.7% | remaining activity at 10 µM (WNK1; [2]): 78.3% | remaining activity at 10 µM (WNK1; [3]): 85.1% | remaining activity at 10 µM (CK2a; [1]): 99.4% | remaining activity at 10 µM (CK2a; [2]): 105% | remaining activity at 10 µM (CK2a; [3]): 93.8% | remaining activity at 10 µM (CHK1; [1]): 115% | remaining activity at 10 µM (CHK1; [2]): 122% | remaining activity at 10 µM (CHK1; [3]): 109% | remaining activity at 10 µM (MARK3; [1]): 100% | remaining activity at 10 µM (MARK3; [2]): 102% | remaining activity at 10 µM (MARK3; [3]): 98.3%
